Measured values from ChEMBL document CHEMBL3045595, “Synthesis and characterization of new types of 2-(6-methoxy-2-naphthyl)propionamide derivatives as potential antibacterial and antifungal agents” (2013).
In brackets after ≈: the same amount, converted by molar mass. Activity calls are given as the source filed them. The calls are words filed in the database; no cut-off is given here.

Tests used:
Format in all cases: functional
[1] = test system: Candida albicans; assay: Antifungal activity against Candida albicans RCMB 05035 at 1 mg/ml after 72 hrs by agar well diffusion method; conditions: for zone of inhibition at 1000 µg/mL: RCMB 05035, 72 h, read-out: DIZ
[2] = test system: Aspergillus ochraceus; assay: Antifungal activity against Aspergillus ochraceus RCMB 02593 at 1 mg/ml after 72 hrs by agar well diffusion method; conditions: RCMB 02593, 72 h, read-out: DIZ
[3] = test system: Pseudomonas aeruginosa; assay: Antibacterial activity against Pseudomonas aeruginosa RCMB 010043 at 1 mg/ml after 24 hrs by agar well diffusion method; conditions: for zone of inhibition at 1000 µg/mL: RCMB 010043, 24 h, read-out: DIZ
[4] = test system: Staphylococcus aureus; assay: Antibacterial activity against Staphylococcus aureus RCMB 010027 at 1 mg/ml after 24 hrs by agar well diffusion method; conditions: RCMB 010027, 24 h, read-out: DIZ
[5] = test system: Bacillus subtilis; assay: Antibacterial activity against Bacillus subtilis RCMB 010063 at 1 mg/ml after 24 hrs by agar well diffusion method; conditions: RCMB 010063, 24 h, read-out: DIZ
[6] = test system: Escherichia coli; assay: Antibacterial activity against Escherichia coli RCMB 000103 at 1 mg/ml after 24 hrs by agar well diffusion method; conditions: for zone of inhibition at 1000 µg/mL: RCMB 000103, 24 h, read-out: DIZ
[7] = test system: Escherichia coli; assay: Antibacterial activity against Escherichia coli RCMB 000103 after 24 hrs by twofold serial dilution method; conditions: RCMB 000103, 24 h
[8] = test system: Candida albicans; assay: Antifungal activity against Candida albicans RCMB 05035
[9] = test system: Bacillus subtilis; assay: Antibacterial activity against Bacillus subtilis RCMB 010063 after 24 hrs by twofold serial dilution method; conditions: RCMB 010063, 24 h
[10] = test system: Pseudomonas aeruginosa; assay: Antibacterial activity against Pseudomonas aeruginosa RCMB 010043 after 24 hrs by twofold serial dilution method; conditions: RCMB 010043, 24 h
[11] = test system: Staphylococcus aureus; assay: Antibacterial activity against Staphylococcus aureus RCMB 010027 after 24 hrs by twofold serial dilution method; conditions: RCMB 010027, 24 h
[12] = test system: Aspergillus ochraceus; assay: Antifungal activity against Aspergillus ochraceus RCMB 02593

Row | SMILES | zone of inhibition at 1000 µg/mL [1] [mm] | zone of inhibition at 1000 µg/mL [2] [mm] | diameter of the inhibition zone (DIZ) [3] | zone of inhibition at 1000 µg/mL [4] [mm] | zone of inhibition at 1000 µg/mL [5] [mm] | zone of inhibition at 1000 µg/mL [6] [mm] | diameter of the inhibition zone (DIZ) [1] | MIC [7] [µg/mL] | MIC [8] | MIC [9] [µg/mL] | MIC [10] [µg/mL] | zone of inhibition at 1000 µg/mL [3] [mm] | MIC [11] [µg/mL] | MIC [12] [µg/mL] | diameter of the inhibition zone (DIZ) [6]
1 | COc1ccc2cc(C(C)C(=O)Nc3ccc(C)cc3)ccc2c1 (stereo not given) | 12.8 | 14.7 | inactive | 16.1 | 17.2 | 15.6 |  |  |  |  |  |  |  |  | 
2 | COc1ccc2cc(C(C)C(=O)Nc3ccc(CC(=O)O)cc3)ccc2c1 (stereo not given) | 12.2 | 13.9 | inactive | 17.3 | 18.4 | 16.6 |  |  |  |  |  |  |  |  | 
3 | COc1ccc2cc(C(C)C(=O)NNC(=O)C(C)c3ccc4cc(OC)ccc4c3)ccc2c1 (stereo not given) | 13.5 | 16 | inactive | 17.9 | 19.4 | 17.1 |  |  |  |  |  |  |  |  | 
4 | COc1ccc2cc(C(C)C(=O)Nc3ccc(N(C(C)=O)c4ccccc4)cc3)ccc2c1 (stereo not given) | 9.3 | 12.4 | inactive | 16.2 | 17.1 | 14.6 |  |  |  |  |  |  |  |  | 
5 | COc1ccc2cc(C(C)C(=O)Nc3ccc(S(=O)(=O)Nc4ncccn4)cc3)ccc2c1 (stereo not given) |  | 11.7 |  | 25.3 | 28.7 | 21.6 | inactive | 3.9 (≈ 8.43 µM) | inactive | 7.81 (≈ 16.9 µM) | 3.9 (≈ 8.43 µM) | 16.8 | 0.24 (≈ 0.519 µM) | 3.9 (≈ 8.43 µM) | 
6 | COc1ccc2cc(C(C)C3=N/C(=C/c4ccc(F)cc4)C(=O)O3)ccc2c1 (stereo not given) | 19.9 | 18.3 |  | 20.3 | 20.6 | 19.3 |  | 15.6 (≈ 41.6 µM) | 125 µg/mL (≈ 333 µM) | 3.9 (≈ 10.4 µM) | 62.5 (≈ 166 µM) | 15.3 | 7.81 (≈ 20.8 µM) | 15.6 (≈ 41.6 µM) | 
7 | COc1ccc2cc(C(C)C(=O)Nc3ccc(C(=O)O)cc3)ccc2c1 (stereo not given) | 15.6 | 19.4 |  | 21.6 | 23.7 | 20.3 |  | 1.95 (≈ 5.58 µM) | 62.5 µg/mL (≈ 179 µM) | 3.9 (≈ 11.2 µM) | 15.6 (≈ 44.7 µM) | 15.9 | 0.24 (≈ 0.687 µM) | 7.81 (≈ 22.4 µM) | 
8 | COc1ccc2cc(C(C)C(=O)NCC(=O)O)ccc2c1 (stereo not given) | 20.6 | 20.9 | inactive | 14.2 | 16.4 | 13.4 |  |  |  |  |  |  |  |  | 
9 | COc1ccc2cc(C(C)C(=O)Nc3ccc4c(c3)Sc3ccccc3N4)ccc2c1 (stereo not given) | 16.9 | 17.6 |  | 21.4 | 24.6 | 20.2 |  | 7.81 (≈ 18.3 µM) | 31.2 µg/mL (≈ 73.3 µM) | 0.97 (≈ 2.27 µM) | 7.81 (≈ 18.3 µM) | 13.6 | 3.9 (≈ 9.14 µM) | 15.6 (≈ 36.6 µM) | 
10 | O=C(O)c1cn(C2CC2)c2cc(N3CCNCC3)c(F)cc2c1=O [CIPROFLOXACIN] |  |  |  |  |  |  |  | 1.95 (≈ 5.89 µM) |  | 0.007 (≈ 0.0211 µM) | 31.2 (≈ 94.3 µM) |  | 0.06 (≈ 0.181 µM) |  | 
11 | COc1ccc2cc(C(C)C(=O)Nc3ccc(S(=O)(=O)Nc4cc(C)on4)cc3)ccc2c1 (stereo not given) | 16.5 | 17.3 |  | 20.6 | 21.7 | 19.9 |  | 3.9 (≈ 8.38 µM) | 250 µg/mL (≈ 537 µM) | 62.5 (≈ 134 µM) | 1.95 (≈ 4.19 µM) | 13 | 31.2 (≈ 67.1 µM) | 7.81 (≈ 16.8 µM) | 
12 | COc1ccc2cc(C(C)C3=N/C(=C/c4ccc(Cl)cc4)C(=O)O3)ccc2c1 (stereo not given) |  | 14.5 | inactive | 13.9 | 15 |  | inactive |  |  |  |  |  |  |  | inactive
13 | COc1ccc2cc(C(C)C(=O)N/C(=C/c3ccc(Cl)cc3)C(=O)Nc3ccc(C)cc3)ccc2c1 (stereo not given) | 13.6 | 14.8 | inactive | 19.9 | 19.6 | 14.3 |  |  |  |  |  |  |  |  | 
14 | COc1ccc2cc(C(C)C(=O)NCc3n[nH]c(=S)[nH]3)ccc2c1 (stereo not given) | 18.8 | 20.2 |  | 21.9 | 23.9 | 20.9 |  | 7.81 (≈ 22.8 µM) | 31.2 µg/mL (≈ 91.3 µM) | 0.97 (≈ 2.83 µM) | 31.2 (≈ 91.3 µM) | 16.8 | 3.9 (≈ 11.4 µM) | 7.81 (≈ 22.8 µM) | 
15 | COc1ccc2cc(C(C)C(=O)Nc3ccc(S(=O)(=O)NC(C)=O)cc3)ccc2c1 (stereo not given) | 17.8 | 18.6 |  | 23.3 | 23.4 | 21.3 |  | 3.9 (≈ 9.14 µM) | 31.2 µg/mL (≈ 73.3 µM) | 0.97 (≈ 2.27 µM) | 125 (≈ 293 µM) | 14.5 | 0.97 (≈ 2.27 µM) | 15.6 (≈ 36.6 µM) | 
16 | COc1ccc2cc(C(C)C(=O)NCCNC(=O)C(C)c3ccc4cc(OC)ccc4c3)ccc2c1 (stereo not given) |  | 12.6 | inactive | 13.1 | 14.5 |  | inactive |  |  |  |  |  |  |  | inactive
17 | COc1ccc2cc(C(C)C(=O)NCc3n[nH]c(=S)n3N)ccc2c1 (stereo not given) | 20.6 | 19.4 |  | 21.6 | 23.7 | 20.3 |  | 7.81 (≈ 21.8 µM) | 62.5 µg/mL (≈ 175 µM) | 0.97 (≈ 2.71 µM) | 62.5 (≈ 175 µM) | 15.9 | 3.9 (≈ 10.9 µM) | 15.6 (≈ 43.7 µM) | 
18 | COc1ccc2cc(C(C)C(=O)NC(C)C(=O)O)ccc2c1 (stereo not given) | 10.6 | 12.7 | inactive | 15.1 | 15.8 | 14.3 |  |  |  |  |  |  |  |  | 
19 | COc1ccc2cc(C(C)C(=O)Nc3ccc(Nc4ccccc4)cc3)ccc2c1 (stereo not given) |  | 17.6 | inactive | 13.9 | 15.4 |  | inactive |  |  |  |  |  |  |  | inactive
